Where “and” joins values, the source holds several entries; their conditions need not be identical. Identical values can stand only once. Like-named read-outs stand apart in the source and are kept apart here.
Columns and labels:
recombinant QR2 = molecular target: T1, recombinant QR2 (Homo sapiens, UniProt P16083); assay: Inhibition of QR2 activity in vitro (absorbance at 365 nm, NmeH/menadione); type: biochemical
T1 sequence (P16083 1-231): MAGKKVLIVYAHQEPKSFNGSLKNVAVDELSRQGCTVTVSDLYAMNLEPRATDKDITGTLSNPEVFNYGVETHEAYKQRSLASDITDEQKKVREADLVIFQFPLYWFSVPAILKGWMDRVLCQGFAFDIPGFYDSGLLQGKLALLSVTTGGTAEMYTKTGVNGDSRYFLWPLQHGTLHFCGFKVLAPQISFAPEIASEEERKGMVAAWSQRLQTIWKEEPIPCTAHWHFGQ
Procedure: Inhibition of QR2 activity by the compounds of the invention was assayed in triplicate with recombinant QR2 (at 96 ng/ml) by measuring the absorbance at 365 nm in a buffer containing 50 Mm Tris-HCl, Ph 8.5, 50 μM NmeH, 20 μM menadione, and 0.1% Triton X-100 as described in Graves et al. (2002) Mol. Pharmacol. 62: 1364-72.

P. yoelii ssp. NS = assay: Four day test for blood schizontocidal activity, chloroquine-resistant P. yoelii ssp. NS in mice; type: in vivo, Plasmodium yoelii; parameters: ED90: unit not given beside the values; details: for ED50: Plasmodium yoelii
Procedure: (§1) MEFA which was developed from NS by the 2% relapse technique (Peters, W., Chemotherapy and Drug Resistance in Malaria, 2nd Ed., London, Academic Press, ISBN 0-12-552721-7).
(§2) Blood schizontocidal activity was assessed by the “four day test” essentially as described by Peters, W. and Robinson, B. L. (1999), “Malaria” in Handbook of Animal Models of Infection, Academic Press. The compound was dissolved in dimethyl sulfoxide with the aid of ultrasonification and aqueous dilutions were prepared for use.
(§3) Random-bred Swiss albino mice free of Mycoplasma (Eperythrozoon) coccoides and weighing between 18 and 22 g. were infected via the tail vein on day 0 (D0) and then treated once daily either subcutaneously or orally by gavage for four consecutive days (D0 through D+3). Thin blood films were made from tail blood from groups of untreated controls and from treated animals on D+4.

P. yoelii ssp. MEFA = assay: Four day test for blood schizontocidal activity, mefloquine-resistant P. yoelii ssp. MEFA in mice; type: in vivo, Plasmodium yoelii; parameters: ED90: unit not given beside the values; details: for ED50: Plasmodium yoelii
Procedure: as §1, §2, §3

[1] = Signs of toxicity in mice treated in the four day test; type: in vivo
Source text: as §3

[2] = tested on: Plasmodium chabaudi AS line; assay: Four day test for blood schizontocidal activity, P. chabaudi AS in mice; type: in vivo; parameters: ED90: unit not given beside the values; details: for ED50: Plasmodium chabaudi
Procedure: as §1, §2, §3

[3] = average of the determinations, read-out: IC50 Average
[4] = individual determinations, assay range given, read-out: IC50
[5] = set 1, average, read-out: IC50 Average
[6] = set 2, average, read-out: IC50 Average
[7] = set 2, individual determinations, read-out: IC50
[8] = P. yoelii ssp. MEFA, sc, once daily D0 to D+3, mice

Row | SMILES | IC50 (recombinant QR2; [3]) | IC50 (recombinant QR2; [4]) | further results
1 | Clc1ccc2c(NCCc3ccccn3)ccnc2c1 [Compound 2-4] | 3.8 µM | 3.3 µM and 4.7 µM | –
2 | Oc1ccc(CCNc2ccnc3cc(Cl)ccc23)cc1 [Compound 2-5] | 2.7 µM | 2.68 µM and 2.42 µM and 2.86 µM | –
3 | Clc1ccc2c(NCc3ccccn3)ccnc2c1 [Compound 2-17] | – | – | IC50 (recombinant QR2; [5]): 0.6 µM; IC50 (recombinant QR2; set 1, individual determinations, read-out: IC50): 0.41 µM and 0.67 µM and 0.72 µM; IC50 (recombinant QR2; [6]): 0.55 µM; IC50 (recombinant QR2; [7]): 0.6 µM and 0.5 µM
4 | Clc1ccc2c(NC3=NC4C=CC=CC4N3)ccnc2c1 (stereo not drawn) [Compound 2-29] | 3.2 µM | 4.1 µM and 2.2 µM and 3.4 µM | –
5 | Clc1ccc2c(SCc3ccccn3)ccnc2c1 [Compound 2-33] | 74 µM | 84 µM and 72.2 µM and 65.9 µM | –
6 | Clc1ccc2c(OCc3ccccn3)ccnc2c1 [Compound 2-34] | 79.6 µM | 81.5 µM and 79 µM and 78.3 µM | –
7 | CNc1ccnc2cc(Cl)ccc12 [Compound 2-39] | 0.13 µM | 0.13 µM and 0.16 µM and 0.09 µM | ED50 (P. yoelii ssp. NS; po): 220 mg/kg; ED50 (P. yoelii ssp. NS; sc): 400 mg/kg; inhibitory activity against resistant strain of P. yoelii (P. yoelii ssp. NS; chloroquine-resistant P. yoelii ssp. NS, result in words): demonstrated inhibitory activity; ED50 (P. yoelii ssp. MEFA; P. yoelii ssp. MEFA, po, once daily D0 to D+3, mice): 190 mg/kg; ED50 (P. yoelii ssp. MEFA; [8]): 320 mg/kg; inhibitory activity against resistant strain of P. yoelii (P. yoelii ssp. MEFA; mefloquine-resistant P. yoelii ssp. MEFA, result in words): demonstrated inhibitory activity; toxicity ([1]; oral, higher doses): some toxicity was observed at higher doses; overt signs of toxicity ([1]; subcutaneous): No overt signs of toxicity; ED50 ([2]; po): 150 mg/kg; ED50 ([2]; sc): 150 mg/kg; activity against the drug-sensitive P. chabaudi AS line ([2]; parenteral and oral, result in words): active both parenterally and orally
8 | O=[N+]([O-])c1ccc(NCCNc2cc(C(F)(F)F)nc3cc(C(F)(F)F)ccc23)nc1 [Compound 5, N-(2-(5-nitropyridin-2-ylamino)ethyl)-2,7-bis(trifluoromethyl)quinolin-4-amine] | 189 µM | 132 µM and 180 µM and 255 µM | –
9 | Clc1ccc2cc(-c3ccccc3)cnc2c1 [Compound 7, 7-chloro-3-phenylquinoline] | 43.3 µM | 49.5 µM and 40 µM and 40.3 µM | –
10 | COc1ccc2c(ccc[n+]2[O-])c1 [Compound 9, 6-methoxyquinoline N-oxide] | 4.9 µM | 4.2 µM and 4.7 µM and 5.8 µM | –
11 | CCN(CC)CCCC(C)Nc1ccnc2cc(Cl)ccc12 (stereo not drawn) [chloroquine, reference compound] | – | – | ED90 (P. yoelii ssp. NS; P. yoelii ssp. NS, sc, once daily D0 to D+3, mice): 19.0; ED50 (P. yoelii ssp. NS; sc): 5 mg/kg; IC50 (recombinant QR2; read-out: QR2 IC50): 1 to 5 µM; IC50 (recombinant QR2; [5]): 1.13 µM; IC50 (recombinant QR2; [6]): 4.13 µM; IC50 (recombinant QR2; [7]): 3.99 µM and 4.15 µM and 4.25 µM
12 | OC(c1cc(C(F)(F)F)nc2c(C(F)(F)F)cccc12)C1CCCCN1 (stereo not drawn) [mefloquine, reference compound] | 33 µM | 28 µM and 34.8 µM and 36.5 µM | ED90 (P. yoelii ssp. MEFA; [8]): 100; ED50 (P. yoelii ssp. MEFA; [8]): 20 mg/kg; ED90 ([2]; P. chabaudi AS, sc (subcutaneous injection), once daily D0 to D+3, mice): 3.0; ED50 ([2]; P. chabaudi AS, sc (subcutaneous injection), once daily D0 to D+3, mice, read-out: ED50): 1.5 mg/kg
13 | COc1cc(NC(C)CCCN)c2ncccc2c1 (stereo not drawn) [primaquine, reference compound] | – | – | IC50 (recombinant QR2; IC50 (μM), individual determinations, assay range given): 14.2 µM and 11 µM and 13.2 µM; IC50 (recombinant QR2; IC50 Average, average of the determinations): 13 µM

Continued, in another order:

Row | IC50 (recombinant QR2; [3]) | IC50 (recombinant QR2; [4]) | SMILES | further results
14 | 98 µM | 109 µM and 87 µM | CC(O)CNCCNc1cc(C(F)(F)F)nc2c(C(F)(F)F)cccc12 (stereo not drawn) [Compound 3-3] | –
15 | 238 µM | 229 µM and 164 µM and 320 µM | OCCN(CCO)CCCNc1cc(C(F)(F)F)nc2c(C(F)(F)F)cccc12 [Compound 3-4] | –
16 | 0.47 µM | 0.34 µM and 0.24 µM and 0.84 µM | COc1cc(NCc2ccccn2)c2ncccc2c1 [Compound 4-1] | –
17 | 4.8 µM | 4.5 µM and 4.7 µM and 5.3 µM | COc1cc(NC2CCN(Cc3ccccc3)CC2)c2ncccc2c1 [Compound 4-2] | –
18 | 10.2 µM | 9.1 µM and 7.8 µM and 13.7 µM | CCC(CC)(CCC#N)CNc1cc(OC)cc2cccnc12 [Compound 4-3] | –
19 | 23 µM | 18.5 µM and 21.7 µM and 28.8 µM | CCN(CC)CCC(C)Nc1cc(OC)cc2cccnc12 (stereo not drawn) [Compound 4-5] | –
20 | 1.6 µM | 2.2 µM and 0.89 µM and 1.65 µM | CCN1CCC(Nc2cc(OC)cc3cccnc23)CC1 [Compound 4-8] | –
21 | 18.5 µM | 11.6 µM and 27.5 µM and 16.4 µM | CCC(CC)(CCCN)CNc1cc(OC)cc2cccnc12 [Compound 4-9] | –
